Measurements reported in US11400058B2, “Intravenous formulations of coenzyme Q10 (CoQ10) and methods of use thereof” (Berg LLC, priority 2010, dated 2022).
Like-named read-outs stand apart in the source and are kept apart here. Marks after values point to notes of the source that are not given here.

Key:
Sk-BR3 = assay: Effect on Bcl-2 family, p53 and caspases in breast cancer cells; assay type: cell-based; conditions: Sk-BR3, 50 and 100 μM
Protocol: (§1) Effect of CoQ10 on Breast Cancer: In another in vitro study, the effect of CoQ10 (50 and 100 μM) on various members of the Bcl-2 family (bcl-2, bcl-xl, bid, bad, bak, mcl-1, bim, and bax), p53, and caspases 4, 8, 12 in two breast cancer cell lines, MCF-7 and Sk-BR3, was evaluated. The Bcl-2 protein family has been implicated as the major contributing factor to conferral of resistance to cancer therapy.

MCF-7 = assay: as above; assay type: cell-based; conditions: MCF-7, 50 and 100 μM
Protocol: as §1

[1] = rats, oral; cited from earlier work
[2] = 4-week repeat-dose study in dogs with 2-week recovery (Study 20000334); conditions: for Died or Sacrificed Moribund: animals of 5;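 on all read-outs here: endpoints monitored covered cageside and clinical observations, body weight, gross pathology, clinical pathology, histopathology and organ weights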
Protocol: An additional two dogs/sex were included in each group and maintained for a 2-week recovery after treatment. A single test article concentration of 40 mg/mL was provided for use on the study. […] Parameters evaluated included cageside observations, clinical observations, body weight, food consumption, ophthalmoscopy, electrocardiography, clinical pathology, gross pathology, organ weights, and histopathology.

[3] = beagle, dog, in vivo, iv
Protocol: In the second dog toxicity study, Charles River Study Number 20000334, CoQ10 IV Formulation was administered as short intravenous infusions at the rate of 5.0 mL/min three times a week for four weeks.
An additional two dogs/sex were included in each group and maintained for a 2-week recovery after treatment. A single test article concentration of 40 mg/mL was provided for use on the study. […] Parameters evaluated included cageside observations, clinical observations, body weight, food consumption, ophthalmoscopy, electrocardiography, clinical pathology, gross pathology, organ weights, and histopathology. Blood samples for determination of the plasma concentrations of CoQ10 IV Formulation were collected pre-dose and at 5, 15, 30 and 60 minutes and at 2, 4, 8 and 24 hours post-dose on Days 1 and 26.

[4] = Sprague Dawley, rat, in vivo, iv
Protocol: In the second rat toxicity study, Charles River Study Number 20000328, CoQ10 was administered as short intravenous infusions at the rate of 1.0 mL/min three times a week for four weeks. For the toxicokinetic evaluation, three groups of nine male and nine females received 62.5, 125, and 250 mg/kg CoQ10 IV Formulation (Table 20). On Days 1 and 26, samples were collected from subgroups of three males and three females at 5 and 15 minutes, and at 1, 4, 24 and 48 hr post-dose.
4-Week Repeat-Dose Toxicology Study of CoQ10 IV Formulation In Rats: Four groups of young adult Sprague Dawley rats (n=10/sex/group) received the vehicle (PBS containing Poloxamer 188 and DMPC) or the test article at doses of 0, 62.5, 125 and 250 mg/kg by IV injection three times per week (Charles River Laboratories Study Number 20000328; Table 26). An additional 5 rats/sex were included in each group and were maintained after treatment for a 2-week recovery period. […] The vehicle was administered at the same dose volume as the high-dose group. Additionally, three groups of 9 animals/sex served as toxicokinetic (TK) animals and received the test article in the same manner as the main study groups. […] Blood samples for determination of the plasma concentrations of the test article were collected from cohorts of three TK animals per sex per dose group at 5, 15 and 60 minutes and at 4, 24 and 48 hours after dosing on Days 1 and 28 (after the last dose).

[5] = 31.25 mg/kg F, end of dosing, animals of 3
[6] = 31.25 mg/kg F, end of recovery, animals of 2
[7] = 31.25 mg/kg M, end of dosing, animals of 3
[8] = 31.25 mg/kg M, end of recovery, animals of 2
[9] = 62.5 mg/kg F, end of dosing, animals of 3
[10] = 62.5 mg/kg F, end of recovery, animals of 2
[11] = 62.5 mg/kg M, end of dosing, animals of 3
[12] = 62.5 mg/kg M, end of recovery, animals of 2
[13] = 125 mg/kg F, end of dosing, animals of 3
[14] = 125 mg/kg F, end of recovery, animals of 2
[15] = 125 mg/kg M, end of dosing, animals of 3
[16] = 125 mg/kg M, end of recovery, animals of 2

SMILES: COC1=C(OC)C(=O)C(C/C=C(\C)CC/C=C(\C)CC/C=C(\C)CC/C=C(\C)CC/C=C(\C)CC/C=C(\C)CC/C=C(\C)CC/C=C(\C)CC/C=C(\C)CCC=C(C)C)=C(C)C1=O [CoQ10, Coenzyme Q10]
- apoptosis (activation of caspase 3, 6 and 9) (Sk-BR3): increased apoptosis
- levels of the anti-apoptotic members (bcl-xl, mcl-1, bcl-2) (Sk-BR3): significantly decreased
- protein expression of pro-apoptotic members and BH3 subfamily members (bid, bad, bax, bim, bak) (Sk-BR3): upregulated
- apoptosis (activation of caspase 3, 6 and 9) (MCF-7): increased apoptosis
- levels of the anti-apoptotic members (bcl-xl, mcl-1, bcl-2) (MCF-7): significantly decreased
- protein expression of pro-apoptotic members and BH3 subfamily members (bid, bad, bax, bim, bak) (MCF-7): upregulated
- orally-administered CoQ10 absorbed [1]: 2-3%
- Died or Sacrificed Moribund ([2]; 31.25 mg/kg F): 0
- Body Weight, percent difference from controls ([2]; 31.25 mg/kg F, end of dosing): +4.7%
- Reticulocytes ([2]; 31.25 mg/kg F, end of dosing): 3.67e+10 L⁻¹
- Gross Pathology: Pale Liver [2, 5]: 0
- Liver Glycogen Accum. [2, 5]: 2
- Liver Glycogen Accum., Mild [2, 5]: 0
- Liver Glycogen Accum., Minimal [2, 5]: 2
- Body Weight, percent difference from controls ([2]; 31.25 mg/kg F, end of recovery): +10.9%
- Reticulocytes ([2]; 31.25 mg/kg F, end of recovery): 63.4 109/L
- Gross Pathology: Pale Liver [2, 6]: 0
- Liver Glycogen Accum. [2, 6]: 0
- Liver Glycogen Accum., Mild [2, 6]: 0
- Liver Glycogen Accum., Moderate [2, 6]: 0
- Died or Sacrificed Moribund ([2]; 31.25 mg/kg M): 0
- Body Weight, percent difference from controls ([2]; 31.25 mg/kg M, end of dosing): +3.3%
- Reticulocytes ([2]; 31.25 mg/kg M, end of dosing): 4.87e+10 L⁻¹
- Gross Pathology: Pale Liver [2, 7]: 0
- Liver Glycogen Accum. [2, 7]: 3
- Liver Glycogen Accum., Mild [2, 7]: 1
- Liver Glycogen Accum., Minimal [2, 7]: 2
- Body Weight, percent difference from controls ([2]; 31.25 mg/kg M, end of recovery): +4.7%
- Reticulocytes ([2]; 31.25 mg/kg M, end of recovery): 71.6 109/L
- Gross Pathology: Pale Liver [2, 8]: 0
- Liver Glycogen Accum. [2, 8]: 0
- Liver Glycogen Accum., Mild [2, 8]: 0
- Liver Glycogen Accum., Moderate [2, 8]: 0
- Died or Sacrificed Moribund ([2]; 62.5 mg/kg F): 0
- Body Weight, percent difference from controls ([2]; 62.5 mg/kg F, end of dosing): +4.2%
- Reticulocytes ([2]; 62.5 mg/kg F, end of dosing): 5.2e+10 L⁻¹
- Gross Pathology: Pale Liver [2, 9]: 3
- Liver Glycogen Accum. [2, 9]: 3
- Liver Glycogen Accum., Mild [2, 9]: 1
- Liver Glycogen Accum., Minimal [2, 9]: 2
- Body Weight, percent difference from controls ([2]; 62.5 mg/kg F, end of recovery): +5.1%
- Reticulocytes ([2]; 62.5 mg/kg F, end of recovery): 50.8 109/L
- Gross Pathology: Pale Liver [2, 10]: 1
- Liver Glycogen Accum. [2, 10]: 1
- Liver Glycogen Accum., Mild [2, 10]: 0
- Liver Glycogen Accum., Moderate [2, 10]: 1
- Died or Sacrificed Moribund ([2]; 62.5 mg/kg M): 0
- Body Weight, percent difference from controls ([2]; 62.5 mg/kg M, end of dosing): 0.0%
- Reticulocytes ([2]; 62.5 mg/kg M, end of dosing): 6.8e+10 L⁻¹
- Gross Pathology: Pale Liver [2, 11]: 3
- Liver Glycogen Accum. [2, 11]: 3
- Liver Glycogen Accum., Mild [2, 11]: 3
- Liver Glycogen Accum., Minimal [2, 11]: 0
- Body Weight, percent difference from controls ([2]; 62.5 mg/kg M, end of recovery): −1.4%
- Reticulocytes ([2]; 62.5 mg/kg M, end of recovery): 85.4 109/L
- Gross Pathology: Pale Liver [2, 12]: 1
- Liver Glycogen Accum. [2, 12]: 1
- Liver Glycogen Accum., Mild [2, 12]: 1
- Liver Glycogen Accum., Moderate [2, 12]: 0
- Died or Sacrificed Moribund ([2]; 125 mg/kg F, moribund sacrificed on Day 36 (Week 2 of recovery)): 1^c
- Body Weight, percent difference from controls ([2]; 125 mg/kg F, end of dosing): −1.0%
- Reticulocytes ([2]; 125 mg/kg F, end of dosing): 160.69 109/L
- Gross Pathology: Pale Liver [2, 13]: 3
- Liver Glycogen Accum. [2, 13]: 3
- Liver Glycogen Accum., Mild [2, 13]: 1
- Liver Glycogen Accum., Minimal [2, 13]: 2
- Body Weight, percent difference from controls ([2]; 125 mg/kg F, end of recovery): −1.0%
- Reticulocytes ([2]; 125 mg/kg F, end of recovery): 53.6 109/L
- Gross Pathology: Pale Liver [2, 14]: 2
- Liver Glycogen Accum. [2, 14]: 2
- Liver Glycogen Accum., Mild [2, 14]: 1
- Liver Glycogen Accum., Moderate [2, 14]: 1
- Died or Sacrificed Moribund ([2]; 125 mg/kg M): 0
- Body Weight, percent difference from controls ([2]; 125 mg/kg M, end of dosing): +1.2%
- Reticulocytes ([2]; 125 mg/kg M, end of dosing): 190.6 109/L
- Gross Pathology: Pale Liver [2, 15]: 3
- Liver Glycogen Accum. [2, 15]: 3
- Liver Glycogen Accum., Mild [2, 15]: 3
- Liver Glycogen Accum., Minimal [2, 15]: 0
- Body Weight, percent difference from controls ([2]; 125 mg/kg M, end of recovery): +7.9%
- Reticulocytes ([2]; 125 mg/kg M, end of recovery): 131.1 109/L
- Gross Pathology: Pale Liver [2, 16]: 2
- Liver Glycogen Accum. [2, 16]: 2
- Liver Glycogen Accum., Mild [2, 16]: 1
- Liver Glycogen Accum., Moderate [2, 16]: 1
- AUC0-t ([3]; female, 31.25 mg/kg): 1207 µg·h/mL
- AUC0-t ([3]; female, 62.5 mg/kg): 2735 µg·h/mL
- AUC0-t ([3]; female, 125 mg/kg): 7370 µg·h/mL
- AUC0-t ([3]; male, 31.25 mg/kg): 1038 µg·h/mL
- AUC0-t ([3]; male, 62.5 mg/kg): 2719 µg·h/mL
- AUC0-t ([3]; male, 125 mg/kg): 7151 µg·h/mL
- AUC0-t ([4]; female, 62.5 mg/kg): 1747 µg·h/mL
- AUC0-t ([4]; female, 125 mg/kg): 3859 µg·h/mL
- AUC0-t ([4]; female, 250 mg/kg): 8368 µg·h/mL
- AUC0-t ([4]; male, 62.5 mg/kg): 1953 µg·h/mL
- AUC0-t ([4]; male, 125 mg/kg): 5037 µg·h/mL
- AUC0-t ([4]; male, 250 mg/kg): 8873 µg·h/mL
